This note sets out measurements from patent publication US20210369680A1, “METHODS OF TREATING DISEASES AND DISORDERS RESULTING FROM BETA CORONAVIRUS INFECTION” (T3D Therapeutics, Inc., priority 2020, published 2021).

A short description of assay [1]: Clinical DSST in subjects with mild-to-moderate dementia (Phase 2a). The class given is in vivo, human. The text has this:
Clinical DSST Data in Cognitively Impaired Subjects
DSST is a commonly used tests in clinical neuropsychology, and has been used to measure a range of cognitive functions including intact motor speed, attention, executive, and visuo-perceptual functions. Reference is made to Jaeger J. Digit Symbol Substitution Test: The Case for Sensitivity Over Specificity hi Neuropsychological Testing. J Clin Psychopharmacol. 2018; 38(5):513-519. doi:10.1097/JCP.0000000000000941, which is incorporated by reference with regard to the example. DSST scores were assessed in a randomized, parallel, 4-dose Phase 2a study in subjects with mild-to-moderate dementia (MMSE for mild 20-26, for moderate 14-19) before and after treatment with compound of Example 11. A total of 34 subjects were randomized to one of 4 doses of drug, 3 mg (n=8), 10 mg (n=9), 30 mg (n=9) or 90 mg (n=8) administered orally once-a-day for 14 days then followed-up at day 21 (7-days post-dosing discontinuation.
DSST scores are based on the number of correct substitutions in a fixed timeframe, and a higher score in the DSST denotes improvement. Data was collected at four time points for all subjects in each of the four dose groups: Prescreen (PS, one week before BL), baseline (BL), end-of-treatment (EOT) and follow-up (FU, one week after EOT). The DSST results averaged across all subjects at PS (14.1, SD=11.8) and BL (13.9, SD=12.5) were quite similar as would be expected. The larger standard deviations, and the wide range of scores (zero to 48) reflects the broad range of cognitive function in the 34 subjects in this trial. DSST averages per dose group at PS were: 3 mg, 13.88 (SD=10.83); 10 mg, 14.33 (SD=13.52); 30 mg, 18.78 (SD=14.52); and 90 mg, 8.88 (SD=6.56). The data is best described as averaged differences in individual results as it reduces variability. For all 34 subjects, the change in DSST score was −0.21 (SD=4.23) for (BL-PS), and 3.5 (SD=5.51) for (FU-EOT), with unpaired t-test p-value of 0.005. […]

The target of another assay is T1, human PPARα (Homo sapiens, UniProt Q07869).
T1 construct: expressed in transfected cells; host or cells: CV-1 cells
T1 sequence (Q07869 1-468): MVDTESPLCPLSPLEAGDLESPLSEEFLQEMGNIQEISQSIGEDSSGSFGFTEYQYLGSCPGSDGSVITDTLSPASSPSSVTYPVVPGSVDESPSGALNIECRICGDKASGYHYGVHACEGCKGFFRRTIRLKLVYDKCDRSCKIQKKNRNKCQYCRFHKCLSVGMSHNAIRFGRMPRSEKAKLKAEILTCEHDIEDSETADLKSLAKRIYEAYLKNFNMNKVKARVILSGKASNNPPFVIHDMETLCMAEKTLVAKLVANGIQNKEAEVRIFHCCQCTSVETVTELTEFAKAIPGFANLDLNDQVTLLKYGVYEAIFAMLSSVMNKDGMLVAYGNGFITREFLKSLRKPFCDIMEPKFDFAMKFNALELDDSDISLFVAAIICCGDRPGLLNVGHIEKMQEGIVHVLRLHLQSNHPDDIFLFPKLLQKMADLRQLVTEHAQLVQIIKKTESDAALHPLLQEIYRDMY
Description: Human PPAR activation, transient transfection study in transfected CV-1 cells. The class given is cell-based. The text has this: (§1) Human PPAR Activation by Compound of Example 11 in Transient Transfection Study
(§2) Table 2 summarizes the results of studies performed in transfected CV-1 cells with three different lots of Compound of Example 11. […].

Another assay concerns the target T2, human PPARγ (Homo sapiens, UniProt P37231).
T2 construct: expressed in transfected cells; host or cells: CV-1 cells
T2 sequence (P37231 1-505): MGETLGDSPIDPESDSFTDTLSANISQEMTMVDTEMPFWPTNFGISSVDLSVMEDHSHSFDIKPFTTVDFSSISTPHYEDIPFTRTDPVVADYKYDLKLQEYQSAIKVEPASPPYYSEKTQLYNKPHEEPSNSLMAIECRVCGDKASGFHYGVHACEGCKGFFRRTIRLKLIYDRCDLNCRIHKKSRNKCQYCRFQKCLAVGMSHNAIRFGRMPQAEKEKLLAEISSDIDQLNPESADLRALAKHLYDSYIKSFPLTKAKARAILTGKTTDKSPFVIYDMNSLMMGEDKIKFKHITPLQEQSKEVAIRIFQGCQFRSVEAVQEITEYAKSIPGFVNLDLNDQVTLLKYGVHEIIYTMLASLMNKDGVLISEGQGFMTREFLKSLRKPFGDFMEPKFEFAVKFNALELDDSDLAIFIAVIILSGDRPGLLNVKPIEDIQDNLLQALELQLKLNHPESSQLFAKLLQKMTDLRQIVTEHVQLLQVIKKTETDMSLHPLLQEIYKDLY
Described as above. The class given is cell-based.
Source text: as §1, §2

As for `CCc1oc(-c2ccc(OC)cc2)nc1CCOc1ccc2c(c1)CC[C@H]2CC(=O)[O-].[Na+]` [Example 11, Sodium (S)-2-(5-(2-(5-ethyl-2-(4-methoxyphenyl)oxazol-4-yl)ethoxy)-2,3-dihydro-1H-inden-1-yl)acetate], the “change in DSST score EOT-PS” value in assay [1] (3 mg group) stood at 0.57. The “change in DSST score FU-PS” value in assay [1] (10 mg group) amounted to 3.14. For the same compound, the “change in DSST score (FU-EOT)” value in assay [1] (all 34 subjects) turned out to be 3.5. Besides, the “Peak effect PPARα” value on human PPARα was determined as 1.87. For the same compound, the Emax on human PPARα (CV-1, average of three lots, read-out: Average % maximal response PPARα) was found to be 49%; on human PPARγ (CV-1, read-out: Average % maximal response PPARγ), 74%. Besides, the “Average % maximal response PPARα” value on human PPARα (average of three lots) is “significantly reduced”. In addition, the “Peak effect PPARγ” value at human PPARγ worked out at 29.49.
